Reference: US11612604B2, “Methods of treating cancer with PLK4 inhibitors” (LUDWIG INSTITUTE FOR CANCER RESEARCH LTD, priority 2017, dated 2023)

These compounds were tested against T1, PLK4 (Homo sapiens, UniProt O00444) (assay: Activity (IC50) of the Table 1 compounds as PLK4 inhibitors). Conditions: Table 1, IC50 class.
T1 sequence (O00444 1-970): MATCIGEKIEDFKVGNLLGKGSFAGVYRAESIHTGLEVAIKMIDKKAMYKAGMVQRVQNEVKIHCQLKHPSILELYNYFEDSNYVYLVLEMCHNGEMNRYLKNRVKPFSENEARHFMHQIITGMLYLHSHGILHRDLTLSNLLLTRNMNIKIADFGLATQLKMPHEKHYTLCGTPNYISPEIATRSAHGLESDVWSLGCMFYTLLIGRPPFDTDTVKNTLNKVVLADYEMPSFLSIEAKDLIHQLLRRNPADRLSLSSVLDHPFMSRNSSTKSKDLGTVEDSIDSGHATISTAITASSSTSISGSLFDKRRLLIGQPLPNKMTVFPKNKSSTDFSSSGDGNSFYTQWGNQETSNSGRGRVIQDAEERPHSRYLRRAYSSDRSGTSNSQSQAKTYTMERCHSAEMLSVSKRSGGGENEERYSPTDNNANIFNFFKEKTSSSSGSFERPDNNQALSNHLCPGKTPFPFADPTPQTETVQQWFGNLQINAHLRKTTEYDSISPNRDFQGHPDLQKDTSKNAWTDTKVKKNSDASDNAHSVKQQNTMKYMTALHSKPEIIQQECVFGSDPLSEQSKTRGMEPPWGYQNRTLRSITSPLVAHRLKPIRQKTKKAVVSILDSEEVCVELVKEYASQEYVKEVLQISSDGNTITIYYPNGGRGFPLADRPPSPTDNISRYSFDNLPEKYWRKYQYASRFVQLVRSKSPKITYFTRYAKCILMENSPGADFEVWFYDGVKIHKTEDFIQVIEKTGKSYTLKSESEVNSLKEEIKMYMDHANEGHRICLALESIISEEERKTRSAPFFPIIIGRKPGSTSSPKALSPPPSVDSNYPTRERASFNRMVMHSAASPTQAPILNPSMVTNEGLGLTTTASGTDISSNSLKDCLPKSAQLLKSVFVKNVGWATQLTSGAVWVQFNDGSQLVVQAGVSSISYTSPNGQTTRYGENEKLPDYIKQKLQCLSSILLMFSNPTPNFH
Assay type: biochemical

| SMILES | IC50 [nM] |
| --- | --- |
| Cc1cc(Nc2nc(Sc3ccc(NC(=O)C4CC4)cc3)nc(N(C)C(C)C)c2C)n[nH]1 | < 100 |
| COCCNc1nc(Sc2ccc(NC(=O)C3CC3)cc2)nc(Nc2cc(C)[nH]n2)c1C | < 100 |
| Cc1cc(Nc2nc(Sc3ccc(NC(=O)C4CC4)cc3)nc(N3CCCCC3)c2C)n[nH]1 | < 100 |
| CCOc1c(Nc2cc(C)[nH]n2)nc(Sc2ccc(NC(=O)C3CC3)cc2)nc1N1CCC(O)CC1 | < 100 |
| COc1c(Nc2cc(C)[nH]n2)nc(Sc2ccc(NC(C)=O)cc2)nc1N1CCC(O)CC1C (centres unmarked) | < 100 |
| COc1c(Nc2cc(C)[nH]n2)nc(Sc2ccc(NC(C)=O)cc2)nc1N1CCN(CCN2CCOCC2)CC1 | < 100 |
| CC(=O)Nc1ccc(Sc2nc(Nc3cc(C)[nH]n3)c(C)c(N3CCN(CCN4CCCCC4)CC3)n2)cc1 | < 100 |
| CC(=O)Nc1ccc(Sc2nc(Nc3cc(C)[nH]n3)c(C)c(N3CCC(OCCN(C)C)CC3)n2)cc1 | < 100 |
| CC(=O)Nc1ccc(Sc2nc(Nc3cc(C)[nH]n3)c(C)c(N3CCOC[C@@H]3C)n2)cc1 | < 100 |
| COc1c(Nc2cc(C)[nH]n2)nc(Sc2ccc(NC(C)=O)cc2)nc1N1CCN(CCN2CCCCC2)CC1 | < 100 |
| COc1c(Nc2cc(C)[nH]n2)nc(Sc2ccc(NC(C)=O)cc2)nc1N1CCN(CCCN(C)C)CC1 | < 100 |
| COc1c(Nc2cc(C)[nH]n2)nc(Sc2ccc(NC(C)=O)cc2)nc1N1CCC(O)C1 (centres unmarked) | < 100 |
| CSc1nc(Nc2cc(C)[nH]n2)c(C)c(N2CCN(CCN(C)C)CC2)n1 | < 100 |
| COc1c(Nc2cc(C)[nH]n2)nc(Sc2ccc(NC(=O)C(F)(F)F)cc2)nc1N1CCN(CCN(C)C)CC1 | < 100 |
| CNC(=O)Nc1ccc(Sc2nc(Nc3cc(C)[nH]n3)c(OC)c(N3CCN(CCN(C)C)CC3)n2)cc1 | < 100 |
| CC(=O)Nc1ccc(Sc2nc(Nc3cc(C)[nH]n3)c(C)c(N3CCOC[C@H]3C)n2)cc1 | < 100 |

| SMILES | IC50 [nM] |
| --- | --- |
| COc1c(Nc2cc(C)[nH]n2)nc(Sc2ccc(NC(C)=O)cc2)nc1N1CCN(CCNC(C)=O)CC1 | < 100 |
| CNCCN1CCN(c2nc(Sc3ccc(NC(C)=O)cc3)nc(Nc3cc(C)[nH]n3)c2OC)CC1 | < 100 |
| COc1c(Nc2cc(C)[nH]n2)nc(Sc2ccc(S(=O)(=O)Cc3ccccc3F)cc2)nc1N1CCOCC1 | < 100 |
| COc1c(Nc2cc(C)[nH]n2)nc(Sc2ccc(S(=O)(=O)Cc3ccccc3[N+](=O)[O-])cc2)nc1N1CCN(CCN(C)C)CC1 | < 100 |
| COc1c(Nc2cc(C)[nH]n2)nc(Sc2ccc(NC(C)=O)cc2)nc1N1CCOC[C@@H]1C | < 100 |
| COc1c(Nc2cc(C)[nH]n2)nc(Sc2ccc(NC(C)=O)cc2)nc1N1CCOC[C@H]1C | < 100 |
| COc1c(Nc2cc(C)[nH]n2)nc(Sc2ccc(NC(N)=O)cc2)nc1N1CCN(CCN(C)C)CC1 | < 100 |
| COc1c(Nc2cc(C)[nH]n2)nc(Sc2ccc(S(=O)(=O)Cc3cccc(C(F)(F)F)c3)cc2)nc1N1CCN(CCN(C)C)CC1 | < 100 |
| COc1c(Nc2cc(C)[nH]n2)nc(Sc2ccc(S(=O)(=O)Cc3cccc(F)c3F)cc2)nc1N1CCN(CCN(C)C)CC1 | < 100 |
| CC(=O)Nc1ccc(Sc2nc(Cc3cc(C)[nH]n3)c(C)c(NC3CCN(C)CC3)n2)cc1 | < 100 |
| CC(=O)Nc1ccc(Sc2nc(Nc3cc(C)[nH]n3)c(C)c(NC3CCNCC3)n2)cc1 | < 100 |
| COc1c(Nc2cc(C)[nH]n2)nc(Sc2ccc(NC(C)=O)cc2)nc1N1CCN(CC(=O)N(C)C)CC1 | < 100 |
| COc1c(Nc2cc(C)[nH]n2)nc(Sc2ccc(NC(C)=O)cc2)nc1NC1CCN(C)CC1 | < 100 |
| COc1c(Nc2cc(C)[nH]n2)nc(Sc2ccc(NC(C)=O)cc2)nc1N1CCC(C(=O)N(C)C)CC1 | < 100 |
| COc1c(Nc2cc(C)[nH]n2)nc(Sc2ccc(S(=O)(=O)Cc3cccc([N+](=O)[O-])c3F)cc2F)nc1N1CCCCC1 [drawing 376] | < 100 |

What follows are compounds tested on caspase-3/7 activity in 'Sensitive' neuroblastoma and 'Not Sensitive' (RPE1, BT-12, BT-16) cell lines (assay: Caspase activation assay). Conditions: 500 nM centrinone B, four cell cycle durations, compared with centrinone.
Assay type: cell-based

| SMILES | caspase activity |
| --- | --- |
| COc1c(Nc2cc(C)[nH]n2)nc(Sc2ccc(S(=O)(=O)Cc3cccc([N+](=O)[O-])c3F)cc2F)nc1N1CCCCC1 [centrinone B] | Comparable levels of caspase activity |
